Source: patent publication US8470769B2, “Method of treatment of bacterial infection by administration of poly-lysine” (priority 2004, dated 2013)

Tests used:
[1] = test system: Trichophyton rubrum (NCPF 335); experiment: Fungal growth sensitivity assay (absorbance at 540 nm); type: cell-based
Method: (§1) Trichophyton interdigitale (NCPF 117) and Trichophyton rubrum (NCPF 335) strains were obtained from the National Collection of Pathogenic Fungi, Bristol and maintained in culture by transfer at approximately monthly intervals on slopes of Sabuoraud's agar and Potato Dextrose Agar at 30° C. Candida albicans strain 3179 (obtained from the National Collection of Type Cultures [NCTC], Colindale) was maintained in Oxoid Mueller Hinton Broth at 37° C. Streptococcus pyogenes strain 8198, Staphylococcus aureus strain 10642 (methicillin-resistant), and E. coli 0157 strain 12900 were obtained from the NCTC, Colindale and maintained in Oxoid Mueller Hinton Broth at 37° C.
To determine the sensitivity of fungal strains to each of the test peptides, their impact on fungal growth was assessed as follows. Suspensions of T. interdigitale and T. rubrum conidia and hyphal fragments were prepared by adding 10 ml of fresh Nutrient Glucose Broth (NGB) (Oxoid Nutrient broth containing 2% w/v glucose) to a slope culture and agitating with a spatula. The resulting conidial/hyphal fragment suspension was filtered through 2 layers of sterile surgical gauze to remove large hyphal mats and pieces of agar. 20 μl of this suspension (absorbance at 540 nm around 0.1, corresponding to approx 10^6 propagules/ml) was inoculated into each well of sterile, 96 well microtitre plates to which a total volume 80 μl of nutrient medium (NGB) and the appropriate amount of peptide solution had previously been added. Control wells were those in which the final assay volume of 100 μl was made up with NGB medium alone, plus solvent (if applicable and at the same concentration as the peptide samples if so). […]

[2] = test system: Trichophyton interdigitale (NCPF 117); experiment: as above; type: cell-based
Method: as §1
To determine the sensitivity of fungal strains to each of the test peptides, their impact on fungal growth was assessed as follows. Suspensions of T. interdigitale and T. rubrum conidia and hyphal fragments were prepared by adding 10 ml of fresh Nutrient Glucose Broth (NGB) (Oxoid Nutrient broth containing 2% w/v glucose) to a slope culture and agitating with a spatula. The resulting conidial/hyphal fragment suspension was filtered through 2 layers of sterile surgical gauze to remove large hyphal mats and pieces of agar. 20 μl of this suspension (absorbance at 540 nm around 0.1, corresponding to approx 10^6 propagules/ml) was inoculated into each well of sterile, 96 well microtitre plates to which a total volume 80 μl of nutrient medium (NGB) and the appropriate amount of peptide solution had previously been added. Control wells were those in which the final assay volume of 100 μl was made up with NGB medium alone, plus solvent (if applicable and at the same concentration as the peptide samples if so). Fungal growth within the plates was monitored by absorbance at 540 nm in a Microtek plate reader after 24 h, 4 day and 7 day incubations at 30° C.

[3] = test system: Candida albicans strain 3179; experiment: Candida albicans growth by optical density (absorbance at 540 nm); type: cell-based; conditions: 50 or 100 and 300 or 500 μg/ml peptide; 24 h and 48 h; time and dose-dependent (FIG. 4)
Method: as §1
The yeast Candida albicans was cultured, as described previously in the materials and methods section, in growth medium alone (control cultures) or in growth medium containing 50 μg/ml or 100 μg/ml and 300 μg/ml or 500 μg/ml of peptide 1, 2, 3 or 4. Growth of C. albicans was assessed by measuring optical density (absorbance at 540 nm) after 24 h (FIG. 4a) and 48 h (FIG. 4b) in culture. […] In a separate experiment, C. albicans survival was assessed after 18-24 h in cultures grown in medium alone (controls) or those including a range of concentrations of peptide 4 spanning 1 μg/ml to 1000 μg/ml (FIG. 6).

[4] = test system: E. coli 0157 strain 12900; experiment: Bacterial survival assay; type: cell-based, Escherichia coli; conditions: range of concentrations; 3 h of exposure; dose dependent (FIG. 7)
Method: (§2) Streptococcus pyogenes strain 8198, Staphylococcus aureus strain 10642 (methicillin-resistant), and E. coli 0157 strain 12900 (all obtained from the NCTC, Colindale) were grown for 18-24 h then stored at 4° C. prior to use. Fresh cultures grown overnight were centrifuged at 2000×g for 10 min and washed with fresh Mueller Hinton Broth. Sensitivity to each of the four peptides was assayed as per C. albicans described above. For E. coli and S. aureus, the starting number of cells for the peptide sensitivity assay was 10^8/ml and the medium used for enumeration was Nutrient Agar (Oxoid). Str. pyogenes grew less well than the other strains on Mueller Hinton agar and so the starting number of cells for these assays was lower than that for the other strains, at 10^6/ml. Str. pyogenes survival was determined using Oxoid Tryptose Soya Agar in place of Nutrient Agar.
(§3) Three clinically relevant bacterial pathogens, E. coli 0157, methicillin-resistant Staphylococcus aureus (MRSA) and Streptococcus pyogenes, were exposed, as described previously in the materials and methods section, to a range of concentrations of peptide 4. After a period of 3 h, samples of each bacterial culture were transferred to appropriate solid phase growth media plates and the numbers of viable colonies in control (growth medium only) and treated (growth medium containing peptide 4) samples assessed after 18-24 h.

[5] = test system: Candida albicans strain 3179; experiment: Candida albicans survival assay (viable counts); type: cell-based; conditions: for Survival of Candida albicans, antifungal activity compared with poly-L-lysine: 100 μg/ml, 1 mg/ml and 10 mg/ml, 2 hours at 37° C. (FIG. 19)
Method: as §1
To determine the sensitivity of fungal strains to each of the test peptides, their impact on Candida survival was assessed as follows. C. albicans cultures were grown for 18-24 h then stored at 4° C. prior to use. Fresh cultures grown overnight were centrifuged at 2000×g for 10 min and washed with fresh Mueller Hinton Broth, adjusting the number of viable cells to between 5×10^6 and 1×10^7/ml. Assay buffer was prepared by adding 100 μl of NGB medium to 6.9 ml of 10 mM sodium phosphate buffer, pH 7.7. 35 μl of assay buffer with or without a range of peptide concentrations was added to a sterile polypropylene screw-capped vial and 15 μl of the Candida albicans inoculum described above was added. The vials were incubated at 37° C. in a water bath for 2 h, and the number of Candida spp. surviving was determined by serial dilution in sterile phosphate buffered saline (PBS) and plating out onto 9 cm Petri dishes containing Oxoid Sabouraud's Agar (20 ml). Counts were made after incubation of these plates at 37° C. for 18-24 h.

[6] = test system: Streptococcus pyogenes strain 8198; experiment: Bacterial survival assay; type: cell-based; conditions: range of concentrations; 3 h of exposure; dose dependent (FIG. 7)
Method: as §2, §3

[7] = test system: Staphylococcus aureus strain 10642 (methicillin-resistant); experiment: Bacterial survival assay; type: cell-based; conditions: range of concentrations; 3 h of exposure; dose dependent (FIG. 7)
Method: as §2, §3

[8] = 3 concentrations of Peptide 4, no acetic acid, 96 hours at 30° C. (FIG. 9)
[9] = 100 μg/ml, no acetic acid, 96 hours at 30° C. (FIG. 15)
[10] = 3 concentrations, no acetic acid, 96 hours at 30° C. (FIG. 14)
[11] = no acetic acid, 96 hours at 30° C. (FIG. 13)

For `CC(=O)O` [acetic acid], the “Growth of T. rubrum (OD)” value ([1]; 0.01% acetic acid alone, 3 days in culture (FIG. 8)) was “no significant effect” and the “Growth of T. interdigitale” value ([2]; 0.5% acetic acid, 96 hours at 30° C. (FIG. 11)) was “significant effect”.

L-Arginine trimer [RRR] was tested, and the “Activity against T. rubrum compared among the trimers” value ([1]; 2 mg/ml of each trimer, 96 hours at 30° C. (FIG. 16)) was “most active peptide” and the “Growth of T. rubrum (OD, percentage of the growth in the untreated culture)” value ([1]; 2 mg/ml of trimer, 96 hours at 30° C. (FIG. 16)) was “significant reduction in growth”.

For “Peptide 4: peptide of FIG. 1 (SEQ ID NO: 10); highly cationic peptide comprising lysine and arginine residues (KRKRKRKCRKRKRRCRKRKCKRKRKRKRKCRKRKRKCCRRKK)”, the “Growth of C. albicans (optical density, absorbance at 540 nm)” value [3] was “significantly inhibited C. albicans growth”, the “Survival of E. coli 0157 (viable colonies)” value [4] was “significantly inhibited survival” and the “Growth of T. rubrum (optical density, absorbance at 540 nm)” value ([1]; 50 μg/ml peptide, day 4 and 7, 0.5% acetic acid as solvent, compared to un-treated control (FIG. 3)) was “significantly inhibited”. The “Growth of T. rubrum (OD)” value ([1]; 1 mg/ml peptide 4 alone, 3 days in culture (FIG. 8)) was “inhibited T. rubrum growth”, the “Growth of T. rubrum (OD)” value [1, 8] was “inhibitory effect” and the “Survival of C. albicans (viability counts)” value ([5]; 1 μg/ml to 1000 μg/ml, after 24 h in culture (FIG. 6)) was “decreased in a dose-dependent manner”. For the same compound, the “Survival of C. albicans at high salt concentrations” value ([5]; range of Peptide 4 concentrations, two concentrations of NaCl, 2 h incubation at 37° C. (FIG. 18)) was “Significant killing activity”, the “Effect of salts on fungicidal activity against C. albicans” value ([5]; two concentrations of NaCl, 2 h incubation at 37° C. (FIG. 18)) was “not inhibited by salts” and the “Survival of Streptococcus pyogenes (viable colonies)” value [6] was “significantly inhibited survival”. The “Survival of methicillin-resistant Staphylococcus aureus (MRSA) (viable colonies)” value [7] was “significantly inhibited survival”, the “Growth of T. interdigitale (optical density, absorbance at 540 nm)” value ([2]; 50 μg/ml peptide, day 4 and 7, 0.5% acetic acid as solvent, compared to un-treated control (FIG. 2)) was “significantly inhibited” and the “Growth of T. interdigitale (OD)” value [2, 8] was “inhibitory effect”. The “Growth of T. interdigitale (OD)” value ([2]; 7 days, no acetic acid solvent (FIG. 10)) was “significantly inhibit fungal growth”, the “Effect of salt concentrations on antifungal activity towards T. interdigitale” value ([2]; Peptide 4 1.2 mg/ml, NaCl 100 mM to 500 mM, no acetic acid, 96 h at 30° C. (FIG. 17)) was “not affected” and the “Peptide concentration at which growth of T. interdigitale was inhibited” value ([2]; no acetic acid, 96 hours at 30° C. (FIG. 9)) was 0.55 mg/mL.

“Poly-D-lysine-HBr 4,000-15,000Da (27-100aa) [pKd27-100]” was tested, and the “Survival of Candida albicans, antifungal activity compared with poly-L-lysine” value [5] was “very similar antifungal activity to the poly-L-lysine”.

In the case of “Poly-L-arginine-HCl 5,000-15,000 (28-86aa) [pR28-86]”, the “Growth of T. rubrum (OD)” value [1, 9] was “loss of activity”, the “Growth of T. rubrum” value ([1]; 1 mg/ml, no acetic acid, 96 hours at 30° C. (FIG. 13)) was “totally inhibiting growth” and the “Concentration down to which active against T. rubrum” value [1, 10] was 0.55 mg/mL. For the same compound, the “Inhibitory impact against T. rubrum compared with poly-L-Lysine” value ([1]; equivalent doses, no acetic acid, 96 hours at 30° C. (FIG. 13)) was “more active”, the “Growth of T. rubrum” value [1, 11] was “inhibited the growth” and the “Survival of Candida albicans, antifungal activity compared with poly-L-lysine” value [5] was “increased antifungal activity”. The “Growth of T. interdigitale (OD)” value [2, 9] was “loss of activity” and the “Concentration down to which active against T. interdigitale” value [2, 10] was 0.55 mg/mL.

With “Poly-L-lysine-HCl 15,000-30,000Da (100-200aa) [pK100-200]” the “Growth of T. rubrum” value [1, 11] was “inhibited the growth” and the “Growth of T. interdigitale” value ([2]; between 1 mg/ml and 50 μg/ml, no acetic acid, 96 hours at 30° C. (FIG. 12)) was “inhibited growth at all concentrations tested”.
